The source made the active and inactive calls.
Experiments:
[1] = inhibitors of intracellular T. cruzi replication, confirmation, NIH3T3 host cells, beta-gal luminescence (AID 2044); format: functional, cell-based;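 further: intracellular parasites grown in NIH/3T3 mouse fibroblasts as host cells; luminescent beta-galactosidase reporter signal from transgenic T. cruzi replicating inside host cells; inhibitors lower the luminescence signal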
[2] = cytotoxicity toward NIH3T3 fibroblasts, dose response, counter-screen, cell-based, ATP luminescence, mouse fibroblasts (AID 2010); format: functional;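 further: cells exposed to compound for about 90 hours before reading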
[3] = target: T1, Corticotropin-releasing factor receptor 2/Corticotropin-releasing factor-binding protein (Homo sapiens, UniProt P24387+Q13324); experiment: activators of CRF receptor 2 with binding protein – uHTS hits, confirmation (AID 602473); format: functional; conditions: read-out: EC50_Mean
T1 sequence (Q13324 whole entry): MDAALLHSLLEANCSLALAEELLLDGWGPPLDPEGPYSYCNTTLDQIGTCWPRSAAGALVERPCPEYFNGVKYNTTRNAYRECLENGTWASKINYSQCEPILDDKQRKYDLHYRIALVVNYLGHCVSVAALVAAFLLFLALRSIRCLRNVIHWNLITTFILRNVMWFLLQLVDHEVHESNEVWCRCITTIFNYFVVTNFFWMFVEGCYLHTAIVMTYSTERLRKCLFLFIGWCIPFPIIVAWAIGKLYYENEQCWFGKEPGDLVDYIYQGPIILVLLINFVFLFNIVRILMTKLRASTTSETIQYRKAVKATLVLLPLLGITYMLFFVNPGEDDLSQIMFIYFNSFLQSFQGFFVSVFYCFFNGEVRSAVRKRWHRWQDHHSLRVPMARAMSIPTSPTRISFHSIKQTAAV
T1 sequence (P24387 whole entry): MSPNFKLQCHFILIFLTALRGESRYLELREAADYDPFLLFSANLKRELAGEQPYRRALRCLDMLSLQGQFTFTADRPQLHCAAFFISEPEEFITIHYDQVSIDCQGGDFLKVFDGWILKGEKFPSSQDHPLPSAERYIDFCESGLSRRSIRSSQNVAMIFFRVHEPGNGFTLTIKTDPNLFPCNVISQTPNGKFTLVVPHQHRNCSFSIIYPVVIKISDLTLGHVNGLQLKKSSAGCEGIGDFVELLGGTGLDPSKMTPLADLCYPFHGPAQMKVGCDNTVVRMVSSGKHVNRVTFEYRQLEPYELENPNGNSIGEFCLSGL

[4] = target: Cytochrome P450 2C19 (Homo sapiens, UniProt P33261); experiment: Cytochrome panel assay with activity outcomes. Panel member name: p450-cyp2c19 Compounds with AC50 equal or less than 10 uM are considered active; format: functional
Cytochrome P450 2C19, sequence (P33261 whole entry): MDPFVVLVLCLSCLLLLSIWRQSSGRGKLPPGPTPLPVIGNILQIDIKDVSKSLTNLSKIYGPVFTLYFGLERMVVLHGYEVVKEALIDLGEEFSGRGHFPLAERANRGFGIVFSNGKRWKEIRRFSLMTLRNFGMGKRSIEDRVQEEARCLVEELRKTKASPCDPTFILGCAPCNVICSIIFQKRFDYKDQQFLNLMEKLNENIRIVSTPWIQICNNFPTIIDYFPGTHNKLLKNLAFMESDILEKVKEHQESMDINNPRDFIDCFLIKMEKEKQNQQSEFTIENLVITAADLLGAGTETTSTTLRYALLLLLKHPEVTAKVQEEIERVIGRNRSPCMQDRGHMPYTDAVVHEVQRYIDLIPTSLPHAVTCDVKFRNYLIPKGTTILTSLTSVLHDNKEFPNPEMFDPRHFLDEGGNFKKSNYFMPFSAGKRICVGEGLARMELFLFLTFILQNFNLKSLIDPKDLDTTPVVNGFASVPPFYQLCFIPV

[5] = inhibitors of firefly luciferase expression or activity, dose response, H4 neuroglioma cells, luminescence (AID 1990); format: functional, cell-based
[6] = Luminescence Cell-Based Dose Response HTS to Identify Inhibitors of 5'UTR Stem-Loop Driven Prion Protein mRNA Translation in H4 Neuroglioblastoma Cells. [Related pubchem assays: 1827 (Project Summary), 1813 (Primary HTS)]; format: functional
[7] = inhibitors of SNCA 5'UTR-driven reporter translation, confirmation, H4 neuroglioma cells, luminescence (AID 1988); format: functional, cell-based
[8] = target: Cytochrome P450 3A4 (Homo sapiens, UniProt P08684);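 further: CYP3A4 tested as one member of a cytochrome P450 panel screen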
Cytochrome P450 3A4, sequence (P08684 whole entry): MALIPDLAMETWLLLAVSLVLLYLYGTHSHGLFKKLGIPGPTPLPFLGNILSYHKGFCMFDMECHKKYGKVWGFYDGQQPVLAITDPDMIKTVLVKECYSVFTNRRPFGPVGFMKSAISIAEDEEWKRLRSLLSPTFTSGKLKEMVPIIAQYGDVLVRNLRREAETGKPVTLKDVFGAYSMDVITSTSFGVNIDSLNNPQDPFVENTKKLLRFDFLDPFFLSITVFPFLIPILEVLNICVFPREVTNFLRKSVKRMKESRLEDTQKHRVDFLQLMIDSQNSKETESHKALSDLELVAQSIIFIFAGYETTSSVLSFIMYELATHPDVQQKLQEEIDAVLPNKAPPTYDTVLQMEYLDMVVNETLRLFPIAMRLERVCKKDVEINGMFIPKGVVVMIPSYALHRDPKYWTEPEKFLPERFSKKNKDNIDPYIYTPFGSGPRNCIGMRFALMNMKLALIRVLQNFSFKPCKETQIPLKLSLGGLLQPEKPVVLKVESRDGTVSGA

[9] = target: Cytochrome P450 2C9 (Homo sapiens, UniProt P11712)
Cytochrome P450 2C9, sequence (P11712 whole entry): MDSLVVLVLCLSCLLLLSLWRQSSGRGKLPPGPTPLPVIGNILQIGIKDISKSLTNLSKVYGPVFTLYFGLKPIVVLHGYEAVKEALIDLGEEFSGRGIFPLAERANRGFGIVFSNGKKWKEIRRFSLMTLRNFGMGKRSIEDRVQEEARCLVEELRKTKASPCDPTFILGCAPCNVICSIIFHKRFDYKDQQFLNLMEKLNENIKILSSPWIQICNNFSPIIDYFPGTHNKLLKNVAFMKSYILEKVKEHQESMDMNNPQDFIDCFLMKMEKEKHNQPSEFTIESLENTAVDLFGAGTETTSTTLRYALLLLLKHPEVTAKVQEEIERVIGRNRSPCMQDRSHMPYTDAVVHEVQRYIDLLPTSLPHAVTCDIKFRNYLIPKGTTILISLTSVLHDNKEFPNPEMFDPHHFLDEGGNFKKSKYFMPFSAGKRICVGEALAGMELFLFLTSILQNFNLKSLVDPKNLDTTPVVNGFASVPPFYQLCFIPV

c1ccc(COc2cccc(CNCc3cccnc3)c2)cc1
EC50 [1]: 8.34 µM (active)
EC50 [2]: > 30 µM (not active)

CCOc1ccc(S(=O)(=O)Nc2nc3ccccc3nc2Nc2ccc(N3CCOCC3)cc2)cc1
EC50 [3]: > 53 µM (inactive)

Cc1cc(C(=O)OC2CCOC2=O)c2ccccc2n1 (centres undefined)
AC50 ([4]; read-out: AC50): 28.2 µM (inconclusive)

Cc1ccccc1C(=O)Nc1cccc(NC(=O)Cn2cnc3c(=O)n(C)c(=O)n(C)c32)c1
EC50 [5]: 26.9 µM (active)
EC50 [6]: 12.9 µM (active)
EC50 [7]: > 120 µM (not active)

OCCCCNCc1ccc(OCc2ccccc2Cl)cc1
AC50 [8]: 25.1 µM (inconclusive)
AC50 ([4]; read-out: AC50): 25.1 µM (inconclusive)

Cc1cc(Oc2ccccc2)nc(-c2ccccc2)n1
AC50 [9]: 12.6 µM (inconclusive)

CCCOC(=O)c1ccc(NC(=O)c2cn(CC)c3nc(C)ccc3c2=O)cc1
AC50 [9]: 15.8 µM (inconclusive)
AC50 ([4]; read-out: AC50): 20 µM (inconclusive)

Cc1cc(C)c(S(=O)(=O)c2ccc(Cl)cc2C)c(Cl)n1
EC50 [1]: 0.336 µM (active)
EC50 [2]: 35.9 µM (active)

Cc1ccc2cc(C(c3nnnn3C3CCCC3)N3CCN(c4ccc(F)cc4)CC3)c(O)nc2c1 (centres undefined)
EC50 [5]: 20.6 µM (active)
EC50 [6]: 113 µM (active)
EC50 [7]: 106 µM (active)

COc1cccc(-c2ccc3ncnc(NCc4cccnc4)c3c2)c1
AC50 [9]: 1.58 µM (inconclusive)

CN(C)CCCOC(=O)c1ccc(Cl)cc1Cl
EC50 [1]: 2.56 µM (active)
EC50 [2]: > 60 µM (not active)

CC(C)(Oc1ccc(Cl)cc1)C(=O)Nc1cccnc1
AC50 [8]: 17.8 µM (inconclusive)

O=c1c(-c2ccc(Cl)cc2)nc2cncnc2n1Cc1ccc(F)cc1
AC50 [8]: 15.8 µM (inconclusive)

COc1ccc(NC(=O)/C(=C\c2cc(OC)c(OC)cc2[N+](=O)[O-])NC(=O)c2ccccc2)cc1
AC50 [8]: 0.891 µM (inconclusive)
AC50 ([4]; read-out: AC50): 20 µM (inconclusive)

O=c1c(-c2cccs2)nc2cncnc2n1C1CC1
AC50 [8]: 5.01 µM (inconclusive)
AC50 [9]: 15.8 µM (inconclusive)

COc1ccc(C2(C)NC(=O)N(CC(=O)c3cc(C)n(C4CC4)c3C)C2=O)cc1 (centres undefined)
EC50 [3]: 5.74 µM (active)

COc1ccc(-c2oc3cc(OC)c(O)c(OC)c3c(=O)c2OC)cc1O
EC50 [5]: 11.3 µM (active)
EC50 [6]: 12.6 µM (active)
EC50 [7]: 13.6 µM (active)

COc1cc([N+](=O)[O-])ccc1-c1ccc(/C=N/NC(=O)OC(C)(C)C)o1
EC50 [3]: 6.43 µM (active)

CN(C)Cc1ccccc1-c1nc(N(C)Cc2ccco2)c2ccccc2n1
AC50 [8]: 1.58 µM (inconclusive)

Nc1ccc(S(=O)(=O)c2ccc(NCN3C(=O)NC(=O)C(=O)C3=O)cc2)cc1 [ALLANTODAPSONE]
AC50 [4]: inconclusive

Cc1cc(C)cc(N2C(=O)/C(=C/NC3CCS(=O)(=O)C3)c3ccccc3C2=O)c1 (centres undefined)
AC50 ([4]; read-out: AC50): 39.8 µM (inconclusive)

CCN(CC)CCN(C(=O)CCOc1ccccc1)c1nc2c(F)cc(F)cc2s1
EC50 [1]: 1.02 µM (active)
EC50 [2]: > 60 µM (inconclusive)

Cc1c(CC(C)(C)C(=O)O)n(Cc2ccc(Cl)cc2)c2ccc(F)cc12
AC50 [8]: 25.1 µM (inconclusive)
AC50 [4]: inconclusive

CC1(C)C(=O)OC(c2cccn2-c2ccc([N+](=O)[O-])cc2)C2(CCCCC2)C1=O (centres undefined)
EC50 [3]: 4.72 µM (active)

CCOC(=O)c1sc(NC(=O)c2cccc(S(=O)(=O)N3c4ccccc4CC3C)c2)cc1C (centres undefined)
EC50 [5]: 10.1 µM (active)
EC50 [6]: 13.6 µM (active)
EC50 [7]: 6.96 µM (active)

CN(C)CCNC(=O)c1csc(Nc2cccc3ccccc23)n1
EC50 [5]: > 120 µM (not active)
EC50 [6]: 23.6 µM (active)
EC50 [7]: 17.1 µM (active)

CCOC(=O)CC(=O)CSc1nc(-c2cccnc2)cc(C)c1C#N
AC50 [8]: 11.2 µM (inconclusive)
AC50 ([4]; read-out: AC50): 8.91 µM (inconclusive)

COc1ccc(NC(=O)c2cc(-c3cccnc3)nc3ccc(C)cc23)cc1OC
AC50 [9]: 7.08 µM (inconclusive)
AC50 ([4]; read-out: AC50): 10 µM (inconclusive)

c1ccc(CNc2nc(-c3ccoc3)nc3ccccc23)cc1
AC50 ([4]; read-out: AC50): 20 µM (inconclusive)

COc1ccc(/C=N/NC(=O)C2CCN(c3ncc(C(F)(F)F)cc3Cl)CC2)cc1
AC50 [8]: 11.2 µM (inconclusive)

N#C/C(=C(/O)c1cccc(F)c1)c1nc2ccccc2s1
EC50 [3]: > 53 µM (inactive)

COc1ccc(NC(=O)N2CCCC3(CCN(C(=O)c4c(C)noc4C)CC3)C2)cc1
AC50 [8]: 25.1 µM (inconclusive)

Cc1cc(C)n(CC(=O)N/N=C/c2ccco2)n1
AC50 [4]: inconclusive

N#Cc1ccc(CN2CCCC3(CCN(C(=O)c4cccc(F)c4)CC3)C2)cc1
AC50 [8]: 10 µM (inconclusive)
AC50 [9]: 39.8 µM (inconclusive)

CC(C)=CCC/C(C)=C/CO/N=C1/C[C@@H](O)[C@@H](O)[C@@H]2[C@H]3C(=O)N(c4ccc(F)cc4F)C(=O)[C@@H]3CC[C@@H]12
AC50 [8]: 3.98 µM (inconclusive)

CCOc1ccc(CNC(=O)C2CCC(=O)N2C2CCCC2)cc1OC (centres undefined)
AC50 [8]: 25.1 µM (inconclusive)
AC50 [9]: 28.2 µM (inconclusive)
AC50 ([4]; read-out: AC50): 22.4 µM (inconclusive)

COCCn1c(=O)c(-c2cccs2)nc2cnc(N3CCN(C)CC3)nc21
AC50 [8]: 31.6 µM (inconclusive)

COC(=O)[C@@]1(Cc2ccc(OC)cc2)[C@@H]2C(=CC(=O)[C@H]2CC(=O)C(=O)N2CCCC2)CN1C(=O)c1ccccc1
AC50 [8]: 2 µM (inconclusive)
AC50 ([4]; read-out: AC50): 39.8 µM (inconclusive)

Cc1ccc(SCc2ccc(C(=O)Nc3ccccc3Br)cc2)cc1
EC50 [3]: > 53 µM (inactive)

Cc1cc(S(=O)(=O)NCCN(C)C)c(C)s1
AC50 [9]: 0.0447 µM (inconclusive)
AC50 ([4]; read-out: AC50): 31.6 µM (inconclusive)

CCCCc1nc(NCC2CCCO2)c(C#N)c2c1COC(C)(C)C2 (centres undefined)
EC50 [5]: 28 µM (active)
EC50 [6]: > 120 µM (not active)
EC50 [7]: > 120 µM (not active)

COc1ccc(Oc2ncc3ncc(=O)n(C[C@H]4CCCO4)c3n2)cc1
AC50 [9]: 20 µM (inconclusive)

CCCOc1ccccc1N=C(Nc1nc(C)cc(C)n1)NS(=O)(=O)c1ccc(C)cc1
EC50 [5]: 14.6 µM (active)
EC50 [6]: > 120 µM (not active)
EC50 [7]: > 120 µM (not active)

COc1ccc(Cc2nn3c(-c4ccccc4Br)nnc3s2)cc1
EC50 [5]: > 120 µM (not active)
EC50 [7]: > 120 µM (not active)

Cc1nc2cnc(Oc3cccc(Cl)c3)nc2n(C[C@H]2CCCO2)c1=O
AC50 [8]: 15.8 µM (inconclusive)

c1ccc(Oc2cccc(OCCCCSc3ncccn3)c2)cc1
EC50 [3]: > 53 µM (inactive)

C[C@@H](C(=O)Nc1ccc2ccccc2c1)[C@H]1C[C@]1(C)[C@H](NC(=O)Oc1ccc(F)cc1)c1ccccc1
AC50 [9]: 31.6 µM (inconclusive)

C=CCOc1c(Cl)cc(CNCCCN2CCOCC2)cc1OC
EC50 [1]: 0.125 µM (active)
EC50 [2]: 20.2 µM (active)

COc1ccc2[nH]c(C(O)(Cc3cccnc3)Cc3cccnc3)cc2c1
EC50 [1]: 2.42 µM (active)
EC50 [2]: > 60 µM (inconclusive)

CSc1cccc(NC(=S)N(Cc2ccccc2)Cc2cccnc2)c1
EC50 [1]: 0.653 µM (active)
EC50 [2]: > 60 µM (not active)

COc1ccccc1-c1ccc2ncnc(Nc3ccccc3)c2c1
AC50 [9]: 1.26 µM (inconclusive)

O=C(OCc1ccccc1Cl)c1cc([N+](=O)[O-])ccc1N1CCOCC1
EC50 [5]: 23.3 µM (active)
EC50 [6]: > 120 µM (not active)
EC50 [7]: 36.1 µM (active)

CCN(CC)CC#CCOC(=O)[C@@](O)(c1ccccc1)C1CCCCC1 [ESOXYBUTYNIN]
AC50 [9]: 15.8 µM (inconclusive)

Nc1cccc2cc(S(=O)(=O)Nc3ccc(C(=O)O)cc3)ccc12
AC50 [9]: 7.94 µM (inconclusive)
AC50 ([4]; read-out: AC50): 3.16 µM (inconclusive)

COc1ccccc1-c1nc(N(C)C)c2ccccc2n1
AC50 [8]: 15.8 µM (inconclusive)

COc1ncc2nc(CCc3ccccc3)c(=O)n(CCc3ccccc3)c2n1
AC50 [9]: 2 µM (inconclusive)

O=C(Nc1ccc(Br)cc1Cl)c1ccc2c(=O)n3c(nc2c1)CCC3
EC50 [3]: 4.04 µM (active)

CCC/C=C(\CCC)C(NC(=O)OCC(C)C)c1ccc(C(=O)OC)cc1 (centres undefined)
AC50 ([4]; read-out: AC50): 25.1 µM (inconclusive)

Cc1cc(C)c2cc(C#N)c(NCCOC(=O)c3ccccc3C)nc2c1
AC50 ([4]; read-out: AC50): 1.78 µM (inconclusive)

COc1cc2c(cc1NC(=O)Nc1ccc(F)cc1)oc1ccccc12
EC50 [1]: 1.94 µM (active)
EC50 [2]: > 30 µM (not active)

COc1ccccc1NC(=O)CCSc1nnnn1C
EC50 [3]: > 53 µM (inactive)
